Measured values published in ChEMBL document CHEMBL4396913, “Synthesis and biological evaluation of hybrid quinolone-based quaternary ammonium antibacterial agents” (Eur J Med Chem, 2019).
Converted amounts (≈) assume the structure as drawn.

How the values were obtained:
[1] = test system: Bacillus spizizenii; experiment: Bactericidal activity against Bacillus subtilis ATCC 6633 cultured in MH medium assessed as reduction in bacterial survival incubated for 48 hrs by microbroth dilution method; type: functional; conditions: ATCC 6633, 48 h
[2] = test system: Staphylococcus epidermidis; experiment: Bactericidal activity against methicillin resistant Staphylococcus epidermidis ATCC 13199 cultured in MH medium assessed as reduction in bacterial survival incubated for 48 hrs by microbroth dilution method; type: functional; conditions: ATCC 13199, 48 h
[3] = test system: Pseudomonas aeruginosa; experiment: Antibacterial activity against Pseudomonas aeruginosa ATCC 9027 cultured in MH medium assessed as reduction in bacterial growth incubated for 48 hrs by microbroth dilution method; type: functional; conditions: ATCC 9027, 48 h
[4] = test system: Staphylococcus epidermidis; experiment: Bactericidal activity against Staphylococcus epidermidis ATCC 14990 cultured in MH medium assessed as reduction in bacterial survival incubated for 48 hrs by microbroth dilution method; type: functional; conditions: ATCC 14990, 48 h
[5] = test system: Enterococcus hirae; experiment: Antibacterial activity against Enterococcus hirae ATCC 1052 cultured in BHI medium assessed as reduction in bacterial growth incubated for 48 hrs by microbroth dilution method; type: functional; conditions: ATCC 1052, 48 h
[6] = target: T1, DNA gyrase (Escherichia coli) (UniProt P0AES6+P0AES4); experiment: Inhibition of Escherichia coli DNA gyrase super-coiling activity using relaxed pNO1 DNA as substrate assessed as enzyme residual activity at 10 uM incubated for 30 mins by fluorescence assay relative to control; type: protein-complex assay
[7] = test system: Serratia marcescens; experiment: Bactericidal activity against Serratia marcescens ATCC 12795 cultured in MH medium assessed as reduction in bacterial survival incubated for 48 hrs by microbroth dilution method; type: functional; conditions: ATCC 12795, 48 h
[8] = test system: Streptococcus pneumoniae; experiment: Antibacterial activity against Streptococcus pneumoniae cultured in MH medium assessed as reduction in bacterial growth incubated for 48 hrs by microbroth dilution method; type: functional
[9] = test system: Staphylococcus aureus; experiment: Bactericidal activity against methicillin resistant Staphylococcus aureus 6347 cultured in MH medium assessed as reduction in bacterial survival incubated for 48 hrs by microbroth dilution method; type: functional; conditions: Staphylococcus aureus, 6347, 48 h
[10] = test system: Staphylococcus epidermidis; experiment: Antibacterial activity against methicillin resistant Staphylococcus epidermidis ATCC 13199 cultured in MH medium assessed as reduction in bacterial growth incubated for 48 hrs by microbroth dilution method; type: functional; conditions: ATCC 13199, 48 h
[11] = test system: HEK293; experiment: Cytotoxicity against human HEK293 cells assessed as cell viability upto 20 uM incubated for 72 hrs by MTT assay; type: cell-based; conditions: hek293, 72 h
[12] = test system: Proteus vulgaris; experiment: Bactericidal activity against Proteus vulgaris NCTC 4635 cultured in MH medium assessed as reduction in bacterial survival incubated for 48 hrs by microbroth dilution method; type: functional; conditions: NCTC 4635, 48 h
[13] = test system: Pseudomonas aeruginosa; experiment: Bactericidal activity against Pseudomonas aeruginosa ATCC 9027 cultured in MH medium assessed as reduction in bacterial survival incubated for 48 hrs by microbroth dilution method; type: functional; conditions: ATCC 9027, 48 h
[14] = test system: Bacillus spizizenii; experiment: Antibacterial activity against Bacillus subtilis ATCC 6633 cultured in MH medium assessed as reduction in bacterial growth incubated for 48 hrs by microbroth dilution method; type: functional; conditions: ATCC 6633, 48 h
[15] = test system: Proteus vulgaris; experiment: Antibacterial activity against Proteus vulgaris NCTC 4635 cultured in MH medium assessed as reduction in bacterial growth incubated for 48 hrs by microbroth dilution method; type: functional; conditions: NCTC 4635, 48 h
[16] = test system: Staphylococcus aureus; experiment: Antibacterial activity against Staphylococcus aureus ATCC 6538 cultured in MH medium assessed as reduction in bacterial growth incubated for 48 hrs by microbroth dilution method; type: functional; conditions: ATCC 6538, 48 h
[17] = test system: Escherichia coli; experiment: Bactericidal activity against Escherichia coli ATCC 8739 cultured in MH medium assessed as reduction in bacterial survival incubated for 48 hrs by microbroth dilution method; type: functional; conditions: ATCC 8739, 48 h
[18] = test system: Staphylococcus aureus; experiment: Antibacterial activity against methicillin resistant Staphylococcus aureus 6347 cultured in MH medium assessed as reduction in bacterial growth incubated for 48 hrs by microbroth dilution method; type: functional; conditions: Staphylococcus aureus, 6347, 48 h
[19] = test system: Escherichia coli; experiment: Antibacterial activity against Escherichia coli ATCC 8739 cultured in MH medium assessed as reduction in bacterial growth incubated for 48 hrs by microbroth dilution method; type: functional; conditions: ATCC 8739, 48 h
[20] = test system: Staphylococcus aureus; experiment: Bactericidal activity against Staphylococcus aureus ATCC 6538 cultured in MH medium assessed as reduction in bacterial survival incubated for 48 hrs by microbroth dilution method; type: functional; conditions: ATCC 6538, 48 h
[21] = test system: Staphylococcus aureus; experiment: Antibacterial activity against methicillin resistant Staphylococcus aureus N315 cultured in MH medium assessed as reduction in bacterial growth incubated for 48 hrs by microbroth dilution method; type: functional; conditions: N315, 48 h
[22] = target: T1, DNA gyrase (Escherichia coli); experiment: Inhibition of Escherichia coli DNA gyrase super-coiling activity using relaxed pNO1 DNA as substrate assessed as enzyme residual activity at 1 uM incubated for 30 mins by fluorescence assay relative to control; type: protein-complex assay
[23] = test system: Staphylococcus epidermidis; experiment: Antibacterial activity against Staphylococcus epidermidis ATCC 14990 cultured in MH medium assessed as reduction in bacterial growth incubated for 48 hrs by microbroth dilution method; type: functional; conditions: ATCC 14990, 48 h
[24] = Lipophilicity, log k of the compound at 100 ug/ml by micellar electrokinetic chromatography; type: physicochemical
[25] = test system: Serratia marcescens; experiment: Antibacterial activity against Serratia marcescens ATCC 12795 cultured in MH medium assessed as reduction in bacterial growth incubated for 48 hrs by microbroth dilution method; type: functional; conditions: ATCC 12795, 48 h
[26] = test system: HEK293; experiment: Cytotoxicity against human HEK293 cells assessed as changes in cell morphology upto 20 uM incubated for 72 hrs by MTT assay; type: cell-based; conditions: hek293, 72 h
[27] = test system: Staphylococcus aureus; experiment: Bactericidal activity against methicillin resistant Staphylococcus aureus N315 cultured in MH medium assessed as reduction in bacterial survival incubated for 48 hrs by microbroth dilution method; type: functional; conditions: N315, 48 h
[28] = test system: Pseudomonas aeruginosa; experiment: Biofilm degradation activity against Pseudomonas aeruginosa ATCC 9027 assessed as biofilm formation at 2 times antibacterial MIC incubated for 24 hrs compound added post-biofilm formation by total biomass crystal violet staining-based method; type: functional
[29] = test system: Pseudomonas aeruginosa; experiment: Antibiofilm activity against Pseudomonas aeruginosa ATCC 9027 assessed as biofilm formation at antibacterial MIC incubated for 24 hrs compound added prior to bacterial biofilm formation by total biomass crystal violet staining-based method relative to control; type: functional
[30] = test system: Staphylococcus aureus; experiment: Biofilm degradation activity against Staphylococcus aureus ATCC 6538 assessed as biofilm formation at 2 times antibacterial MIC incubated for 24 hrs compound added post-biofilm formation by total biomass crystal violet staining-based method; type: functional
[31] = test system: Enterococcus hirae; experiment: Bactericidal activity against Enterococcus hirae ATCC 1052 cultured in BHI medium assessed as reduction in bacterial survival incubated for 48 hrs by microbroth dilution method; type: functional; conditions: ATCC 1052, 48 h
[32] = test system: Staphylococcus aureus; experiment: Biofilm degradation activity against Staphylococcus aureus ATCC 6538 assessed as biofilm formation at 4 times antibacterial MIC incubated for 24 hrs compound added post-biofilm formation by total biomass crystal violet staining-based method; type: functional
[33] = test system: Pseudomonas aeruginosa; experiment: Biofilm degradation activity against Pseudomonas aeruginosa ATCC 9027 assessed as biofilm formation at 4 times antibacterial MIC incubated for 24 hrs compound added post-biofilm formation by total biomass crystal violet staining-based method; type: functional
[34] = test system: Pseudomonas aeruginosa; experiment: Biofilm degradation activity against Pseudomonas aeruginosa ATCC 9027 assessed as biofilm formation at antibacterial MIC incubated for 24 hrs compound added post-biofilm formation by total biomass crystal violet staining-based method; type: functional
[35] = test system: Staphylococcus aureus; experiment: Antibiofilm activity against Staphylococcus aureus ATCC 6538 assessed as biofilm formation at 0.5 times antibacterial MIC incubated for 24 hrs compound added prior to bacterial biofilm formation by total biomass crystal violet staining-based method relative to control; type: functional
[36] = test system: Staphylococcus aureus; experiment: Biofilm degradation activity against Staphylococcus aureus ATCC 6538 assessed as biofilm formation at antibacterial MIC incubated for 24 hrs compound added post-biofilm formation by total biomass crystal violet staining-based method; type: functional
[37] = test system: Pseudomonas aeruginosa; experiment: Antibiofilm activity against Pseudomonas aeruginosa ATCC 9027 assessed as biofilm formation at 0.5 times antibacterial MIC incubated for 24 hrs compound added prior to bacterial biofilm formation by total biomass crystal violet staining-based method relative to control; type: functional
[38] = test system: Staphylococcus aureus; experiment: Antibiofilm activity against Staphylococcus aureus ATCC 6538 assessed as biofilm formation at antibacterial MIC incubated for 24 hrs compound added prior to bacterial biofilm formation by total biomass crystal violet staining-based method relative to control; type: functional
[39] = test system: Streptococcus pneumoniae; experiment: Bactericidal activity against Streptococcus pneumoniae cultured in MH medium assessed as reduction in bacterial survival incubated for 48 hrs by microbroth dilution method; type: functional

SMILES: C[C@@H]1CN(c2c(F)c(N)c3c(=O)c(C(=O)O)cn(C4CC4)c3c2F)C[C@H](C)[N+]12CN1C(=N2)C(C(=O)O)=Cc2ccccc21.[Cl-] (some centres not stated)
- MBC [1]: 4 µg/mL
- MBC [2]: 32 µg/mL
- MIC [3]: 64 µg/mL
- MBC [4]: 8 µg/mL
- MIC [5]: > 512 µg/mL
- Activity [6]: 35%
- MBC [7]: 64 µg/mL
- MIC [8]: > 512 µg/mL
- MBC [9]: 32 µg/mL
- MIC [10]: 16 µg/mL
- Activity [11]: Non-Toxic
- MBC [12]: 2 µg/mL
- MBC [13]: 64 µg/mL
- MIC [14]: 4 µg/mL
- MIC [15]: 2 µg/mL
- MIC [16]: 8 µg/mL
- MBC [17]: 4 µg/mL
- MIC [18]: 32 µg/mL
- MIC [19]: 4 µg/mL
- MBC [20]: 8 µg/mL
- MIC [21]: 32 µg/mL
- Activity [22]: 73%
- MIC [23]: 8 µg/mL
- log K [24]: -0.07
- MIC [25]: 64 µg/mL
- Activity [26]: Non-Toxic
- MBC [27]: 128 µg/mL

SMILES: CCn1cc(C(=O)O)c(=O)c2cc(F)c(N3CCNC(C)C3)c(F)c21 (configuration not stated) [LOMEFLOXACIN]
- MBC [1]: 0.125 µg/mL (≈ 0.356 µM)
- MBC [2]: 0.25 µg/mL (≈ 0.712 µM)
- MIC [3]: 1 µg/mL (≈ 2.85 µM)
- MBC [4]: 2 µg/mL (≈ 5.69 µM)
- MIC [5]: 128 µg/mL (≈ 364 µM)
- Activity [28]: 36%
- MBC [7]: 0.5 µg/mL (≈ 1.42 µM)
- MIC [8]: 16 µg/mL (≈ 45.5 µM)
- MBC [9]: 1 µg/mL (≈ 2.85 µM)
- MIC [10]: 0.25 µg/mL (≈ 0.712 µM)
- MBC [12]: 0.008 µg/mL (≈ 0.0228 µM)
- MBC [13]: 1 µg/mL (≈ 2.85 µM)
- MIC [14]: 0.125 µg/mL (≈ 0.356 µM)
- Activity [29]: 2%
- MIC [15]: 0.008 µg/mL (≈ 0.0228 µM)
- MIC [16]: 1 µg/mL (≈ 2.85 µM)
- Activity [30]: 12%
- MBC [17]: 0.125 µg/mL (≈ 0.356 µM)
- MBC [31]: 128 µg/mL (≈ 364 µM)
- Activity [32]: 6%
- MIC [18]: 0.5 µg/mL (≈ 1.42 µM)
- MIC [19]: 0.063 µg/mL (≈ 0.179 µM)
- Activity [33]: 34%
- MBC [20]: 1 µg/mL (≈ 2.85 µM)
- Activity [34]: 40%
- MIC [21]: 0.5 µg/mL (≈ 1.42 µM)
- MIC [23]: 1 µg/mL (≈ 2.85 µM)
- Activity [35]: 63%
- log K [24]: 0.0766
- Activity [36]: 58%
- Activity [37]: 6%
- MIC [25]: 0.5 µg/mL (≈ 1.42 µM)
- Activity [38]: 9%
- MBC [39]: > 512 µg/mL
- MBC [27]: 1 µg/mL (≈ 2.85 µM)
